Results taken from the supplement of paper PMC5908809.

How the values were obtained:
[1] = test system: normal NK cells expanded with K562-aAPC; assay: drug sensitivity score (DSS) (DSS units); higher = more sensitive; extreme values may be limits of the assay; conditions: 72 h; IL-2 2.5 ng/mL
Procedure: (§1)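 Drug sensitivity and resistance testing on K562-aAPC-expanded normal NK cells: 5 concentrations (10-fold steps over a 10,000-fold range), 72 h at 37 °C, viability by CellTiter-Glo normalised to DMSO and benzethonium chloride controls; DSS from the fitted curve.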

[2] = test system: normal NK cells expanded with K562-aAPC; assay: percent inhibition of viability; higher = more inhibition; conditions: 72 h, IL-2 2.5 ng/mL
Procedure: as §1

[3] = test system: normal primary NK cells, pool 3 (3 donors) (IL-2 2.5 ng/mL); assay: as above; conditions: 72 h
NK-92 (IL-2 2.5 ng/mL) [4] = assay: as above; conditions: 72 h
NKL (IL-2 2.5 ng/mL) [5] = assay: as above; conditions: 72 h
YT (IL-2 2.5 ng/mL) [6] = assay: as above; conditions: 72 h
[7] = test system: normal primary NK cells, pool 1 (3 donors) (IL-2 2.5 ng/mL); assay: as above; conditions: 72 h
IMC-1 (IL-2 20 ng/mL) [8] = assay: as above; conditions: 72 h
KHYG-1 (IL-2 2.5 ng/mL) [9] = assay: as above; conditions: 72 h
DERL-7 (IL-2 2.5 ng/mL) [10] = assay: as above; conditions: 72 h
SNK-6 (IL-2 2.5 ng/mL) [11] = assay: as above; conditions: 72 h
KAI3 (IL-2 2.5 ng/mL) [12] = assay: as above; conditions: 72 h
[13] = test system: normal primary NK cells, pool 2 (3 donors) (IL-2 2.5 ng/mL); assay: as above; conditions: 72 h
NK-YS (IL-2 2.5 ng/mL) [14] = assay: as above; conditions: 72 h
[15] = test system: normal primary NK cells, pool 1 (3 donors), resting (IL-2 0 ng/mL); assay: as above; conditions: 72 h
[16] = test system: normal primary NK cells, pool 3 (3 donors) (IL-2 2.5 ng/mL); assay: drug sensitivity score (DSS) (DSS units); higher = more sensitive; extreme values may be limits of the assay; conditions: 72 h
NK-92 (IL-2 2.5 ng/mL) [17] = assay: as above; conditions: 72 h
NKL (IL-2 2.5 ng/mL) [18] = assay: as above; conditions: 72 h
YT (IL-2 2.5 ng/mL) [19] = assay: as above; conditions: 72 h
[20] = test system: normal primary NK cells, pool 1 (3 donors) (IL-2 2.5 ng/mL); assay: as above; conditions: 72 h
IMC-1 (IL-2 20 ng/mL) [21] = assay: as above; conditions: 72 h
KHYG-1 (IL-2 2.5 ng/mL) [22] = assay: as above; conditions: 72 h
DERL-7 (IL-2 2.5 ng/mL) [23] = assay: as above; conditions: 72 h
SNK-6 (IL-2 2.5 ng/mL) [24] = assay: as above; conditions: 72 h
KAI3 (IL-2 2.5 ng/mL) [25] = assay: as above; conditions: 72 h
[26] = test system: normal primary NK cells, pool 2 (3 donors) (IL-2 2.5 ng/mL); assay: as above; conditions: 72 h
NK-YS (IL-2 2.5 ng/mL) [27] = assay: as above; conditions: 72 h
[28] = test system: normal primary NK cells, pool 1 (3 donors), resting (IL-2 0 ng/mL); assay: as above; conditions: 72 h

CO[C@@H](C(=O)N1Cc2[nH]nc(NC(=O)c3ccc(N4CCN(C)CC4)cc3)c2C1)c1ccccc1 [Danusertib] (max concentration tested 10000 nM)
Conditions	drug sensitivity score
DERL-7 (IL-2 2.5 ng/mL) [23]	14.3
IMC-1 (IL-2 20 ng/mL) [21]	17.9
KAI3 (IL-2 2.5 ng/mL) [25]	10
KHYG-1 (IL-2 2.5 ng/mL) [22]	13.2
NK-92 (IL-2 2.5 ng/mL) [17]	10.4
NK-YS (IL-2 2.5 ng/mL) [27]	14.6
NKL (IL-2 2.5 ng/mL) [18]	6.51
SNK-6 (IL-2 2.5 ng/mL) [24]	12.2
YT (IL-2 2.5 ng/mL) [19]	7.27
[1]	8.98
[16]	1.46
[20]	4.29
[26]	3.85
[28]	0

percent inhibition of viability [%]
Conditions	1 nM	10 nM	100 nM	1000 nM	10000 nM
DERL-7 (IL-2 2.5 ng/mL) [10]	4.21	7.76	28.8	56.9	73.3
IMC-1 (IL-2 20 ng/mL) [8]	-7.01	-4.49	6.37	93.6	99.5
KAI3 (IL-2 2.5 ng/mL) [12]	-6.41	-1.03	23.9	37.9	69.3
KHYG-1 (IL-2 2.5 ng/mL) [9]	-6.8	-6.2	5.51	66.7	86.5
NK-92 (IL-2 2.5 ng/mL) [4]	4	8.37	15.1	45.9	64.6
NK-YS (IL-2 2.5 ng/mL) [14]	-2.39	-4.33	9.93	70.3	61.7
NKL (IL-2 2.5 ng/mL) [5]	-10.8	-14.4	-11	20.2	64.9
SNK-6 (IL-2 2.5 ng/mL) [11]	-10.1	-21.1	-2.34	66.7	72.5
YT (IL-2 2.5 ng/mL) [6]	-0.26	-0.92	21.1	27.8	44.9
[2]	0.09	-2.41	-1.99	45	66.8
[3]	-3.44	7.87	4.81	5.78	23.5
[7]	-7.78	14.4	8.28	17.6	41.4
[13]	-7.19	11.2	11.8	13.2	39.9
[15]	2.29	22.1	18.6	2.51	-6.72

CN[C@@H](C)C(=O)N[C@H]1CN(C(=O)CC(C)C)CC[C@H]2CC[C@@H](C(=O)NC(c3ccccc3)c3ccccc3)N2C1=O [AT-406] (max concentration tested 10000 nM)
Conditions	drug sensitivity score
DERL-7 (IL-2 2.5 ng/mL) [23]	4.83
IMC-1 (IL-2 20 ng/mL) [21]	2.57
KAI3 (IL-2 2.5 ng/mL) [25]	5.12
KHYG-1 (IL-2 2.5 ng/mL) [22]	8.94
NK-92 (IL-2 2.5 ng/mL) [17]	4.65
NK-YS (IL-2 2.5 ng/mL) [27]	0
NKL (IL-2 2.5 ng/mL) [18]	3.99
SNK-6 (IL-2 2.5 ng/mL) [24]	0.19
YT (IL-2 2.5 ng/mL) [19]	3.66
[1]	5.72
[16]	5.48
[20]	7.33
[26]	6.28
[28]	7.24

percent inhibition of viability [%]
Conditions	1 nM	10 nM	100 nM	1000 nM	10000 nM
DERL-7 (IL-2 2.5 ng/mL) [10]	-6.8	8.09	10.6	21.5	39.4
IMC-1 (IL-2 20 ng/mL) [8]	-6.88	-6.17	4.87	17.4	12.2
KAI3 (IL-2 2.5 ng/mL) [12]	0.46	-9.34	-3.88	10.2	62.7
KHYG-1 (IL-2 2.5 ng/mL) [9]	-3.13	-12.2	-7.84	25.9	91.8
NK-92 (IL-2 2.5 ng/mL) [4]	-23.7	-16.2	3.03	13.5	49.2
NK-YS (IL-2 2.5 ng/mL) [14]	-5.59	-11.9	-8.91	-3.43	6.14
NKL (IL-2 2.5 ng/mL) [5]	2.76	0.59	0.42	22.9	30.9
SNK-6 (IL-2 2.5 ng/mL) [11]	-9.2	-11.9	-1.09	4.11	11.8
YT (IL-2 2.5 ng/mL) [6]	0.43	-2.82	-3.18	14.6	35.9
[2]	-3.38	-2.67	4.16	25.7	52.9
[3]	-11.2	-10.2	2.26	13	61.8
[7]	-7.15	1.28	15.2	27.8	74
[13]	-16.6	-8.69	4.59	20.9	64.6
[15]	-17.3	-12.3	13.9	28.4	73.2
